From patent publication US20150158845A1, “5-HALOGEN-SUBSTITUTED OXINDOLE DERIVATIVES AND USE THEREOF FOR TREATING VASOPRESSIN-DEPENDENT DISEASES” (ABBVIE DEUTSCHLAND GMBH & CO. KG, priority 2007, published 2015)

Columns and labels:
[1] = molecular target: T1, human vasopressin V1b receptor (Homo sapiens, UniProt P47901); experiment: Vasopressin V1b receptor binding assay; conditions: membranes from CHO-K1 cells with human V1b receptor, 1.5 nM 3H-AVP
T1 construct: expressed in transfected cells; host or cells: CHO-K1 (clone 3H2; cell line hV1b-3H2_CHO), membrane preparation
T1 sequence (P47901 1-424): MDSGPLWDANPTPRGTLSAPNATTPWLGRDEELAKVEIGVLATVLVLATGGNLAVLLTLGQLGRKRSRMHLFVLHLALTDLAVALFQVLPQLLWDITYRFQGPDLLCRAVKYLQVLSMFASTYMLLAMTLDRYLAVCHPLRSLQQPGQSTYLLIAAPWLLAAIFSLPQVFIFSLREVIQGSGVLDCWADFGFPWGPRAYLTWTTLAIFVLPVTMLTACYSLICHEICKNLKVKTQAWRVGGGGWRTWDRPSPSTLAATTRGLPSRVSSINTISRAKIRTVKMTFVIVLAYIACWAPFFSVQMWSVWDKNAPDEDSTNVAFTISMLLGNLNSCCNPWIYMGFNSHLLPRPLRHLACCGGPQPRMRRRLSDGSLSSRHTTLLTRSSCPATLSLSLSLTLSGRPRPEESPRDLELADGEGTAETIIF
Experimental: 1. Vasopressin V1b Receptor Binding Assay:
The substance concentration was further diluted 1:5 in the assay mixture (2% DMSO in the mixture).
The nonspecific binding was determined with 1 M AVP (Bachem # H1780). All determinations were carried out as triplicate determinations.

[2] = Determination of the microsomal half-life / microsomal clearance; type: in vitro ADME; conditions: human liver microsomes, 0.5 μM test substance, 0.25 mg microsomal protein/ml; for microsomal CLint at 0.5 μM: pH 7.4
Experimental: 5. Determination of the Microsomal Half-Life:
The metabolic stability of the compounds of the invention was determined in the following assay.
The test substances were incubated in a concentration of 0.5 μM as follows: 0.5 μM test substance are preincubated together with liver microsomes from different species (from rat, human or other species) (0.25 mg of microsomal protein/ml) in 0.05 M potassium phosphate buffer of pH 7.4 in microtiter plates at 37° C. for 5 min. The reaction is started by adding NADPH (1 mg/mL). After 0, 5, 10, 15, 20 and 30 min, 50 μl aliquots are removed, and the reaction is immediately stopped and cooled with the same volume of acetonitrile. The samples are frozen until analyzed. The remaining concentration of undegraded test substance is determined by MSMS. The half-life (T½) is determined from the gradient of the signal of test substance/unit time plot, it being possible to calculate the half-life of the test substance, assuming first order kinetics, from the decrease in the concentration of the compound with time. The microsomal clearance (mCl) is calculated from mCl=In2/T½/(content of microsomal protein in mg/ml)×1000 […] (modified from references: Di, The Society for Biomoleculur Screening, 2003, 453-462; Obach, DMD, 1999 vol 27. N 11, 1350-1359).

[3] = molecular target: human vasopressin V1a receptor (Homo sapiens, UniProt P37288); experiment: Vasopressin V1a receptor binding assay; conditions: selectivity: quotient of Ki at human V1a and Ki at human V1b
Chain of human vasopressin V1a receptor (P37288 whole entry): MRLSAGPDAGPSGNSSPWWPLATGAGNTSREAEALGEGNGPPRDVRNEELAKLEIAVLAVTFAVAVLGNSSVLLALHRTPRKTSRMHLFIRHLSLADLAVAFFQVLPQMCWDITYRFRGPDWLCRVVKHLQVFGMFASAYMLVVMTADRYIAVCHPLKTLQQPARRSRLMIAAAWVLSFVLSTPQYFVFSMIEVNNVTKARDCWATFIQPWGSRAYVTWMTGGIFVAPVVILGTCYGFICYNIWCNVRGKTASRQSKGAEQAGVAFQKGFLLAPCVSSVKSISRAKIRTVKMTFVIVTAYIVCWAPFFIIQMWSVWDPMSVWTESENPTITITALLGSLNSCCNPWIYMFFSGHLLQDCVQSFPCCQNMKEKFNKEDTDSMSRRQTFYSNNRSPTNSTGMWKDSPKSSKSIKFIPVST

## CCOc1ncccc1C1(NC(=O)N2CCN(C3CCN(C)CC3)CC2)C(=O)N(S(=O)(=O)c2ccc(OC)cc2OC)c2ccc(Cl)cc21 (racemic) [Example 1, (±)-4-(1-Methylpiperidin-4-yl)piperazin-1-[5-chloro-1-(2,4-dimethoxyphenylsulfonyl)-3-(2-ethoxypyridin-3-yl)-2-oxo-2,3-dihydro-1H-indol-3-yl]carboxamide]
[1]
  Ki: < 1 nM
[2]
  microsomal CLint at 0.5 μM: 75 to 100 µL/min/mg
[3]
  Ki(h-V1a)/Ki(h-V1b): +++ (>75)

## CCOc1ncccc1C1(NC(=O)N2CCN(C3CCN(C)CC3)CC2)C(=O)N(S(=O)(=O)c2ccccc2)c2ccc(Cl)cc21.O=C(O)C(F)(F)F (racemic) [Example 3, (±)-4-(1-Methylpiperidin-4-yl)piperazine-1-[1-phenylsulfonyl-5-chloro-3-(2-ethoxypyridin-3-yl)-2-oxo-2,3-dihydro-1H-indol-3-yl]carboxamide, trifluoroacetic acid salt]
[1]
  Ki: 1 to 10 nM
[2]
  Human microsomal clearance: +++ (<50 μl min^−1 mg^−1)
[3]
  Ki(h-V1a)/Ki(h-V1b): ++ (25-75)

## CCOc1ncccc1C1(NC(=O)N2CCC(C3CCN(C)CC3)CC2)C(=O)N(S(=O)(=O)c2ccc(OC)cc2OC)c2ccc(Cl)cc21 (racemic) [Example 13, (±)-1′-Methyl-[4,4′]bipiperidinyl-1-[5-chloro-1-(2,4-dimethoxyphenylsulfonyl)-3-(2-ethoxypyridin-3-yl)-2-oxo-2,3-dihydro-1H-indol-3-yl]carboxamide]
[1]
  Ki: < 1 nM
[2]
  microsomal CLint at 0.5 μM: 75 to 100 µL/min/mg
[3]
  Ki(h-V1a)/Ki(h-V1b): ++ (25-75)

## CCOc1ncc(C)cc1C1(NC(=O)N2CCN(C3CCN(C)CC3)CC2)C(=O)N(S(=O)(=O)c2ccc(OC)cc2OC)c2ccc(Cl)cc21.O=C(O)C(F)(F)F (racemic) [Example 14, (±)-4-(1-Methylpiperidin-4-yl)piperazine-1-[5-chloro-1-(2,4-dimethoxyphenylsulfonyl)-3-(2-ethoxy-5-methylpyridin-3-yl)-2-oxo-2,3-dihydro-1H-indol-3-yl]carboxamide, trifluoroacetic acid salt]
[1]
  Ki: < 1 nM
[2]
  Human microsomal clearance: ++ (50-75 μl min^−1 mg^−1)
[3]
  Ki(h-V1a)/Ki(h-V1b): +++ (>75)

## CCOc1ncc(C)cc1C1(NC(=O)N2CCN(C3CCN(CC)CC3)CC2)C(=O)N(S(=O)(=O)c2ccc(OC)cc2OC)c2ccc(Cl)cc21.O=C(O)C(F)(F)F (racemic) [Example 15, (±)-4-(1-Ethylpiperidin-4-yl)piperazine-1-[5-chloro-1-(2,4-dimethoxyphenylsulfonyl)-3-(2-ethoxy-5-methylpyridin-3-yl)-2-oxo-2,3-dihydro-1H-indol-3-yl]carboxamide, trifluoroacetic acid salt]
[1]
  Ki: < 1 nM
[2]
  Human microsomal clearance: + (>75-100 μl min^−1 mg^−1)
[3]
  Ki(h-V1a)/Ki(h-V1b): ++ (25-75)

## CCOc1ncc(C)cc1C1(NC(=O)N2CCC(N3CCN(C)CC3)CC2)C(=O)N(S(=O)(=O)c2ccc(OC)cc2OC)c2ccc(Cl)cc21.O=C(O)C(F)(F)F (racemic) [Example 16, (±)-4-(4-Methylpiperazin-1-yl)piperidine-1-[5-chloro-1-(2,4-dimethoxyphenylsulfonyl)-3-(2-ethoxy-5-methylpyridin-3-yl)-2-oxo-2,3-dihydro-1H-indol-3-yl]carboxamide, trifluoroacetic acid salt]
[1]
  Ki: < 1 nM
[2]
  Human microsomal clearance: + (>75-100 μl min^−1 mg^−1)
[3]
  Ki(h-V1a)/Ki(h-V1b): + (10-<25)

## CCOc1ncc(C)cc1C1(NC(=O)N2CCC(N3CCN(CC)CC3)CC2)C(=O)N(S(=O)(=O)c2ccc(OC)cc2OC)c2ccc(Cl)cc21.O=C(O)C(F)(F)F (racemic) [Example 17, (±)-4-(4-Ethylpiperazin-1-yl)piperidine-1-[5-chloro-1-(2,4-dimethoxyphenylsulfonyl)-3-(2-ethoxy-5-methylpyridin-3-yl)-2-oxo-2,3-dihydro-1H-indol-3-yl]carboxamide, trifluoroacetic acid salt]
[1]
  Ki: < 1 nM
[2]
  Human microsomal clearance: + (>75-100 μl min^−1 mg^−1)
[3]
  Ki(h-V1a)/Ki(h-V1b): + (10-<25)

## CCOc1ncccc1C1(OC(=O)N2CCN(C3CCN(C)CC3)CC2)C(=O)N(S(=O)(=O)c2ccccc2)c2ccc(Cl)cc21.O=C(O)C(F)(F)F (racemic) [Example 24, 1-Phenylsulfonyl-5-chloro-3-(2-ethoxypyridin-3-yl)-2-oxo-2,3-dihydro-1H-indol-3-yl (±)-4-(1-methylpiperidin-4-yl)piperazine-1-carboxylate, trifluoroacetic acid salt]
[1]
  Ki: 1 to 10 nM
[2]
  microsomal CLint at 0.5 μM: 50 to 75 µL/min/mg
[3]
  Ki(h-V1a)/Ki(h-V1b): ++ (25-75)

## CCOc1ncccc1C1(CC(=O)N2CCN(C3CCN(C)CC3)CC2)C(=O)N(S(=O)(=O)c2ccc(OC)cc2OC)c2ccc(Cl)cc21.O=C(O)C(F)(F)F (racemic) [Example 28, (±)-5-Chloro-1-(2,4-dimethoxyphenylsulfonyl)-3-(2-ethoxypyridin-3-yl)-3-{2-[4-(1-methylpiperidin-4-yl)piperazin-1-yl]-2-oxoethyl}-1,3-dihydroindol-2-one, trifluoroacetic acid salt]
[1]
  Ki: < 1 nM
[2]
  microsomal CLint at 0.5 μM: 75 to 100 µL/min/mg
[3]
  Ki(h-V1a)/Ki(h-V1b): ++ (25-75)

## CCOc1ncccc1C1(CC(=O)N2CCN(C3CCN(C)CC3)CC2)C(=O)N(S(=O)(=O)c2ccccc2)c2ccc(Cl)cc21.O=C(O)C(F)(F)F (racemic) [Example 29, (±)-1-Phenylsulfonyl-5-chloro-3-(2-ethoxypyridin-3-yl)-3-{2-[4-(1-methylpiperidin-4-yl)piperazin-1-yl]-2-oxoethyl}-1,3-dihydroindol-2-one, trifluoroacetic acid salt]
[1]
  Ki: 1 to 10 nM
[2]
  microsomal CLint at 0.5 μM: < 50 µL/min/mg
[3]
  Ki(h-V1a)/Ki(h-V1b): + (10-<25)

## CCOc1ncccc1C1(CC(=O)N2CCC(N3CCN(CC)CC3)CC2)C(=O)N(S(=O)(=O)c2ccc(OC)cc2OC)c2ccc(Cl)cc21.O=C(O)C(F)(F)F (racemic) [Example 32, (±)-5-Chloro-1-(2,4-dimethoxyphenylsulfonyl)-3-(2-ethoxypyridin-3-yl)-3-{2-[4-(4-ethylpiperazin-1-yl)piperidin-1-yl]-2-oxoethyl}-1,3-dihydroindol-2-one, trifluoroacetic acid salt]
[1]
  Ki: < 1 nM
[2]
  microsomal CLint at 0.5 μM: 50 to 75 µL/min/mg
[3]
  Ki(h-V1a)/Ki(h-V1b): + (10-<25)

## CCOc1ncccc1C1(NC(=O)N2CCN(C3CCN(C)CC3)CC2)C(=O)N(S(=O)(=O)c2ccc(OC)cc2OC)c2ccc(Cl)cc21 (single isomer, unassigned; (+)) [Example 1B, (+)-4-(1-Methylpiperidin-4-yl)piperazine-1-[5-chloro-1-(2,4-dimethoxyphenylsulfonyl)-3-(2-ethoxypyridin-3-yl)-2-oxo-2,3-dihydro-1H-indol-3-yl]carboxamide]
[1]
  Ki: < 1 nM
[2]
  microsomal CLint at 0.5 μM: < 50 µL/min/mg
[3]
  Ki(h-V1a)/Ki(h-V1b): +++ (>75)

## CCOc1ncccc1C1(NC(=O)N2CCN(C3CCN(CC)CC3)CC2)C(=O)N(S(=O)(=O)c2ccc(OC)cc2OC)c2ccc(Cl)cc21 (single isomer, unassigned; (+)) [Example 4B, (+)-4-(1-Ethylpiperidin-4-yl)piperazine-1-[5-chloro-1-(2,4-dimethoxyphenylsulfonyl)-3-(2-ethoxypyridin-3-yl)-2-oxo-2,3-dihydro-1H-indol-3-yl]carboxamide]
[1]
  Ki: < 1 nM
[2]
  microsomal CLint at 0.5 μM: 50 to 75 µL/min/mg
[3]
  Ki(h-V1a)/Ki(h-V1b): +++ (>75)
